According to US20070270462A1, “8-hydroxyquinoline compounds for treating a polyglutamine (polyQ)-expansion disease” (priority 2005, published 2007):
Marks after values point to notes of the source that are not given here.

Columns and labels:
Htt exon1-Q25-egfp = experiment: Fluorescence microscopy of transfected PC12 cells expressing Htt exon1-Q25-egfp; assay type: cell-based; conditions: CQ 4 μM, 48 hours post-transfection
Text: (§1) PolyQ-htt-GFP fusion constructs, in which the polyglutamine region is encoded by CAA and CAG-containing tandem repeats ([…]) [SEQ ID NO: 1], human polyglutaminen, were obtained from the Hereditary Disease Foundation, Santa Monica, Calif., USA. PC12 and HEK293 cells were maintained in MEM supplemented with 10% v/v FBS, switched to Opti-MEM without serum for 6 hrs during transfection using Lipofectamine 2000 (Invitrogen, Carlsbad, Calif., USA), and returned to serum-containing medium thereafter (up to 48 hours). […] Control cultures received equivalent amounts of DMSO-containing vehicle (<0.1% w/v DMSO, final concentration).
(§2) Concordant with this reduction in mutant protein expression, cell survival was improved by CQ in a dose dependent fashion with a half maximal effect at 1-2 μM (FIG. 2b). Cell death began to increase at 8 μM, likely due to dose-dependent toxic effects of CQ.

egfp-alone = experiment: Fluorescence microscopy of transfected PC12 cells expressing egfp alone; assay type: cell-based; conditions: CQ 4 μM, 48 hours post-transfection
Text: as §1, §2

[1] = test system: Htt exon1-Q103-egfp transfected PC12 cells; experiment: cells; assay type: cell-based
Text: as §1
Plasma membrane integrity was evaluated using propidium iodide at 20 μg/ml final concentration. Approximately 200 cells transfected with the Htt^exon1-Q103-egf plasmid were counted for each treatment group 48 hr after transfection. Cells were at that time as expanded protein accumulation had reached a plateau, and 90% of cell death occurred by this time point. The experiment was repeated twice and counts were averaged. Counts of transfected cells were averaged from three independent, randomly-selected fields. ImageJ 1.32j (National Institutes of Health, USA), was used to measure the size of the lateral ventricles (n≧6 for each group). […]

Htt exon1-Q103-egfp = experiment: Proteasome inhibitor MG132 treatment of CQ-treated Htt exon1-Q103-egfp-expressing HEK293 cells; assay type: cell-based; conditions: pan-proteasome inhibitor MG132
Description: HEK293 or PC12 cells were lysed in PBS buffer containing 1% v/v Triton X-100 and protease inhibitor cocktail (Roche, Indianapolis, Ind.), and passed through a 28 gauge needle to ensure the release of Htt inclusions from the nuclei. Whole mouse brains were homogenized in 50 mM Tris-HCl (pH 7.4), 150 mM NaCl, 1% v/v Triton X-100 and complete protease inhibitor cocktail. Brain homogenate was pre-cleared by centrifuging at 7,500 g for 90 s at 4° C. The supernatant was passed through a 28-gauge needle and boiled in SDS sample buffer for 10 min. Fifty μg of total protein was loaded onto 10% w/v SDS gel containing a 4% w/v stacking gel. Monoclonal antibodies anti-polyglutamine (1:2,000), anti-GAPDH (1:10,000), anti-GFP (1:4,000), and anti-Htt (EM48) in 1:1000 dilution were used for immunoblotting. All western blot experiments were performed at least three times and band intensities were averaged.
In examining potential mechanisms for the effects of CQ on Htt accumulation, we considered the possibilities that CQ might act to inhibit Htt aggregation or directly influence Htt synthesis or degradation. […] Therefore, we focused on the aspects of Htt synthesis and turnover. To determine whether CQ might down-regulate polyQ-Htt expression at the transcriptional level, we examined the amount of Htt^exon1-Q103-egfp mRNA present after 48 hrs of transfection by Northern analysis. […]

R6/2 mice [2] = experiment: Lateral ventricle area (striatal atrophy) in R6/2 mice; assay type: in vivo, mouse; conditions: 11-week old, oral CQ 30 mg/kg/day, versus sham treatment group
Description: (§3) A colony of transgenic mice strain R6/2 that is heterozygous for htt exon1 (containing 145 CAG repeats) was maintained, with founders originating and available from The Jackson Laboratory (Bar Harbor, Me., USA). Male transgenic R6/2 mice were bred with background strain (B6CBAFI/J) females. Genotyping was done according to Hockly et al, Brain Res Bull 61, 469-479, 2003. CQ in water was orally administered to mice at 30 mg/kg/day starting at 3 weeks of age and continued until the mice were deceased or sacrificed for tissues. Littermate R6/2 mice were gavaged with water vehicle alone. At the end of CQ treatment mice were anesthetized and transcardially perfused with PBS followed by 4% v/v paraformaldehyde. Blood glucose levels were determined after at least 8 hrs of fasting in 11-week old mice (n=6 for wild-type, n=4 for vehicle-treated R6/2, n=6 for CQ-treated R6/2 littermates) using a 2300 STAT Plus glucose analyzer (YSI, Yellowsonte, Ohio, USA). Fasting blood insulin levels in animals fasted for 8 hrs were measured using an Ultra Sensitive Rat Insulin ELISA Kit (Crystal Chem, Inc., Downers Grove, Ill., USA) according to manufacturer's instructions.
Plasma membrane integrity was evaluated using propidium iodide at 20 μg/ml final concentration. Approximately 200 cells transfected with the Htt^exon1-Q103-egf plasmid were counted for each treatment group 48 hr after transfection. […]

R6/2 mice [3] = experiment: Body weight of R6/2 mice; assay type: in vivo, mouse; conditions: 10th and 11th weeks, oral CQ 30 mg/kg/day
Description: as §3, with “instructions. […]” for “instructions.”

R6/2 mice [4] = experiment: Fasting blood insulin in R6/2 mice (ELISA); assay type: in vivo, mouse; conditions: 11-week old R6/2 mice
Description: as §3
Consistent with the blood glucose level was a reciprocal change in blood insulin levels.
Data are mean+s.e.m. n≧4 for each treatment group. *P<0.0004 for glucose, **P=0.0065 for insulin levels comparing vehicle and CQ-treated groups.

## Oc1c(I)cc(Cl)c2cccnc12 [CQ, 5-chloro-7-iodo-8-hydroxy-quinoline]
Htt exon1-Q25-egfp
  fluorescent product of Htt exon1-Q25-egfp: unaffected
egfp-alone
  fluorescent product of egfp-alone: unaffected
[1]; Rattus norvegicus, PC-12, Htt exon1-Q103-egfp cells, PI staining, 48 hr after transfection, read-out: cell survival improvement, half maximal effect
  EC50: 1000 to 2000 nM
[1]; rat, 48 h
  CQ concentration at which cell death began to increase (toxic effects of CQ): 8 µM
Htt exon1-Q103-egfp
  suppression of exon1-Q103-egfp protein production by CQ under MG132 treatment: not affected
R6/2 mice [2]
  reduction of lateral ventricle area: 55%
R6/2 mice [3]
  body weight: significantly greater than untreated animals
R6/2 mice [4]; CQ treated group
  fasting blood insulin level: 415 ± 54.6 pg/mL
R6/2 mice [4]; fasting, CQ-treated, mean ± s.e.m. (Table 3)
  Insulin level: 415 ± 54.60** pg/ml
